Reference: patent publication US20240116985A1, “STAPLED PEPTIDES AND METHODS THEREOF” (priority 2020, published 2024)
≈ marks a conversion by molar mass, not a printed value. Like-named read-outs stand apart in the source and are kept apart here.

How the values were obtained:
[1] = target: T1, beta-catenin/TCF4 engagement (Homo sapiens, UniProt P35222); test: Nano-BRET target engagement assay (B-cat-Halo & TCF4-Luc in HEK293 cells); assay type: cell-based; details: absolute IC50; read-out: NanoBRET Abs IC50
T1 construct: expressed in transfected cells; host or cells: HEK293
T1 sequence (P35222 1-781): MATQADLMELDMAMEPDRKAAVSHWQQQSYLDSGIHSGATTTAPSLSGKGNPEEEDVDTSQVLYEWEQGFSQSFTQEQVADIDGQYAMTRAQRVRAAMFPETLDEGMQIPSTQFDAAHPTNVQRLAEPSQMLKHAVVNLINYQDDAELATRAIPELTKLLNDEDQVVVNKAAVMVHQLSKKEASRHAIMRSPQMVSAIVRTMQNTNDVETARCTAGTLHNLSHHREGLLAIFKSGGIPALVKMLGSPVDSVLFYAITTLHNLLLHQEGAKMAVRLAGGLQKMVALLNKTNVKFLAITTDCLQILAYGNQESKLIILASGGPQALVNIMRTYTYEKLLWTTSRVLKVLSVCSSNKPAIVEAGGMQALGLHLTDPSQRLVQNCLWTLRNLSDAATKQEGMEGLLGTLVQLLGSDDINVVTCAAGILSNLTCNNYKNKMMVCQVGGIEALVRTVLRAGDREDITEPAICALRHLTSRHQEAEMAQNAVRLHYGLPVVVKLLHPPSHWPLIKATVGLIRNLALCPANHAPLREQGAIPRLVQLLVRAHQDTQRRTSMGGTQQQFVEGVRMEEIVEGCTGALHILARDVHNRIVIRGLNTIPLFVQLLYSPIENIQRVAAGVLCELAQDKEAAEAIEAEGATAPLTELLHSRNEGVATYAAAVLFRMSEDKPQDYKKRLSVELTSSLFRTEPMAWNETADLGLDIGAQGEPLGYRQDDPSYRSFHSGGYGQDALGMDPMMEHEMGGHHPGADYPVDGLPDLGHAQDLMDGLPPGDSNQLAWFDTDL

[2] = target: T2, full-length beta-Catenin (Uniprot ID P35222) (Homo sapiens, UniProt P35222); test: Fluorescence polarization IC50 (beta-catenin / 5FAM-TCF4 10-53 competition); assay type: binding
T2 construct: 10 nM full-length beta-Catenin (Uniprot ID P35222)
T2 sequence (P35222 1-781): T1 sequence (P35222 1-781)

[3] = system: TCF/LEF luciferase Reporter in DLD1 cells; test: TCF reporter assay (DLD1 TCF/LEF luciferase reporter, Bright-Glo); assay type: cell-based; details: read-out: DLD1 4% Abs IC50, DLD1 reporter, 4%
Source text: Those skilled in the art will appreciate that other suitable reagents may be utilized and various parameters may be adjusted.
DLD1 reporter cell line was generated by using TCF/LEF luciferase Reporter Lentivirus (BPS Bioscience Catalog #79787). Parental DLD1 cells (ATCC@ CCL-221) were transfected with the lentivirus and followed by 3-day puromycin selection. Single clone was selected for Reporter assay.
On Day 1, cultured cells in flasks that are no more than about 60-70% confluent were washed with PBS and typsinized in 3 mL/T75 until cells were free floating. Spin down cells for 5 minutes at 1100RPM. While cells spin, determine the number of plates (3 compounds per plate) needed. After spinning, aspirate the supernatant gently and add 10 mL media (RPMI+4% FBS), and re-suspend and mix the cells gently. Count the cells twice in the cell counter Countess and take average of both the counts, and determine how many cells are needed. After plating cells at 5000 cells/well, seal with aerseal film. 90 uL cells/well. Incubate at 37° C. overnight, tap gently to mix and don't stack plates.
On Day 2, compounds were added. Stock solution was 10 mM. Make the DMSO containing media by adding 36 uL DMSO to 10 mL of media. Make the dilution wells by transferring 100 uL DMSO+Media into rows B-F of a protein LoBind 96-well plate. Row G is empty. Add any extra DMSO+media to row H. Transfer 4 uL of stock solution to Row A. One compound per column. Add 196 uL media to Row A, no DMSO in the media. Concentration of Row A was 200 uM. Mix well and do a 6 pt, 1:2 serial dilution, mix ×10 per transfer and change tips before each transfer. Removed excess volume from final well (row F) and discard. Transfer 10 uL of the compound containing media to cells with a multichannel according to plate maps. Add 60 uL DMSO containing media to the DMSO wells. The edge wells were typically not used in the assay and could be ignored if needed or replaced with PBS, but there typically were liquids in the wells. Cover plates with breathable plate sealer and incubate overnight.
A 96-well plate may be utilized to prepare dilution series for up to 12 compounds, each with several concentrations (e.g., 200, 100, 50, 25, 12.5, 6.25 and 0 uM; can be utilized as 100× depending on final test concentrations).
0 uM is the DMSO control for the whole plate. Edge well filled with 90 uL cells+10 uL DMSO containing media.
On Day 3, luciferase levels were assessed using Bright-Glo (Promega). Equilibrate Bright-Glo to room temperature before addition. 7 mL of mixed Bright-Gbo per plate. Unused Bright-Glo could be store at −80° C. Reconstituted reagent can be stored for up to 1 month at −80° C., or after one freeze-thaw. When ready to read, remove plates from incubator and let sit at room temperature for 15 minutes. Typically stagger taking out plates if reading multiple plates before adding the Bright-Glo. Add 90 uL/well Bright-Glo and shake gently for 3 minutes. Read luminescence on GloMax immediately using ‘BrightGlo’ programs.
Cellular activity was assessed using CTG. Equilibrate CTG reagents to room temperature. Equilibrate plates to room temp, e.g. 15 min. Use same time length for all plates. Add CTG reagent, 25 uL if using undiluted, or 90 uL if diluted 1 to 4. Shake for 2 min to induce cell lysis. Allow plate to incubate at RT for 10 min to stabilize lumine sent signal. Read luminesence using program ‘CellTiter-Glo’. Use Prism to find the Absolute IC50 (AbsIC50=X[50]) of each compound.

CHI Log D procedure = assay type: physicochemical; details: for CHI Log D: pH 7.4
Solubility in PBS = assay type: physicochemical
Method in brief: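 HPLC quantitation of peptide remaining in the PBS supernatant after ultracentrifugation, referenced to a 50 μM solution in DMSO.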

[4] = fluorescence polarization, read-out: beta-Catenin FP IC50

SMILES	IC50 [1] [nM]	IC50 [2, 4] [nM]	IC50 ([3]; absolute IC50) [nM]	also measured
CC(=O)N1CCC[C@]12CC=CCCCC1(CCCC=CCCCOC(=O)N3CC[C@@](C(=O)N[C@@H](Cc4ccccc4C(F)(F)F)C(=O)N[C@@H](Cc4csc5ccccc45)C(=O)N[C@@H](CCC(N)=O)C(N)=O)(C3)NC(=O)[C@H](CC(C)C)NC(=O)[C@H](Cc3ccccc3)NC(=O)[C@H](C)NC(=O)[C@H](C)NC(=O)[C@H](CC(=O)O)NC(=O)[C@H](CC(=O)O)NC1=O)NC(=O)[C@H](CC(C)(C)C)NC(=O)[C@H](CC(=O)O)NC2=O (stereo partly drawn) [I-1318, Ac-PL3-Asp-Npg-B5-Asp-Asp-Ala-Ala-Phe-Leu-PyrS2-2F3MeF-BztA-Gln-NH2]	4800	14	3900	–
CC(C)C[C@H](NC(=O)[C@]12CCN(C1)C(=O)OCCCCCCCCC1(CCCCCCc3ccccc3C(=O)N3CCC[C@@]3(C)C(=O)N[C@@H](CC(=O)O)C(=O)N1)C(=O)N[C@@H](C)C(=O)N[C@@H](CC(=O)O)C(=O)N[C@@H](CC(=O)O)C(=O)N[C@@H](C)C(=O)N[C@@H](C)C(=O)N[C@@H](Cc1ccccc1)C(=O)N2)C(=O)N[C@@H](Cc1ccsc1)C(=O)N[C@@H](Cc1csc2ccccc12)C(=O)N[C@@H](CCC(N)=O)C(N)=O (stereo partly drawn) [I-2606, BzAm2Allyl-MePro-Asp-B5-Ala-Asp-Asp-Ala-Ala-Phe-PyrS2-Leu-3Thi-BztA-Gln-NH2]	–	734	–	IC50 [3]: > 20000 nM
CC(=O)N1CCC[C@]12CC=CCCCC1(CCCC=CCCCOC(=O)N3CC[C@@](C(=O)N[C@@H](Cc4ccccc4C(F)(F)F)C(=O)N[C@@H](Cc4csc5ccccc45)C(=O)N[C@@H](CCC(N)=O)C(N)=O)(C3)NC(=O)[C@H](CC(C)C)NC(=O)[C@H](Cc3ccccc3)NC(=O)[C@H](C)NC(=O)[C@H](C)NC(=O)[C@H](Cc3cccc(C(=O)O)c3)NC(=O)[C@H](CC(=O)O)NC1=O)NC(=O)[C@H](CC(C)(C)C)NC(=O)[C@H](CC(=O)O)NC2=O (stereo partly drawn) [I-1466, Ac-PL3-Asp-Npg-B5-Asp-3COOHF-Ala-Ala-Phe-Leu-PyrS2-2F3MeF-BztA-Gln-NH2]	–	–	700	IC50 ([2]; read-out: beta-Catenin FP IC50): 10 nM
CC(C)C[C@H](NC(=O)[C@]12CCN(C1)C(=O)OCCCCCCCCC1(CCCCCCc3ccccc3C(=O)N3CCC[C@@]3(C)C(=O)N[C@@H](CC(=O)O)C(=O)N1)C(=O)N[C@@H](C)C(=O)N[C@@H](CC(=O)O)C(=O)N[C@@H](Cc1cccc(C(=O)O)c1)C(=O)N[C@@H](C)C(=O)N[C@@H](C)C(=O)N[C@@H](Cc1ccccc1)C(=O)N2)C(=O)N[C@@H](Cc1ccsc1)C(=O)N[C@@H](Cc1csc2ccccc12)C(=O)N[C@@H](CCC(N)=O)C(N)=O (stereo partly drawn) [I-2607, BzAm2Allyl-MePro-Asp-B5-Ala-Asp-3COOHF-Ala-Ala-Phe-PyrS2-Leu-3Thi-BztA-Gln-NH2]	–	904	–	IC50 [3]: > 20000 nM
CC(=O)N1CCC[C@]12CC=CCCCC1(CCCC=CCCCOC(=O)N3CC[C@@](C(=O)N[C@@H](Cc4ccsc4)C(=O)N[C@@H](Cc4csc5ccccc45)C(=O)N[C@@H](CCCNC(=N)N)C(N)=O)(C3)NC(=O)[C@H](CC(N)=O)NC(=O)[C@H](Cc3ccccc3)NC(=O)[C@H](C)NC(=O)C(C)(C)NC(=O)[C@H]([C@@H](C)O)NC(=O)[C@H](CC(N)=O)NC1=O)NC(=O)[C@H](CC(C)(C)C)NC(=O)[C@H](CC(=O)O)NC2=O (stereo partly drawn) [I-2413, Ac-PL3-Asp-Npg-B5-Asn-Thr-Aib-Ala-Phe-Asn-PyrS2-3Thi-BztA-Arg-NH2]	–	133	> 20000	–
CC(=O)N1CCC[C@]12CC=CCCCC1(CCCC=CCCCOC(=O)N3CC[C@@](C(=O)N[C@@H](Cc4ccsc4)C(=O)N[C@@H](Cc4csc5ccccc45)C(=O)N[C@@H](Cc4c[nH]cn4)C(N)=O)(C3)NC(=O)[C@H](CC(N)=O)NC(=O)[C@H](Cc3ccccc3)NC(=O)[C@H](C)NC(=O)[C@H](C)NC(=O)[C@H](CCC(N)=O)NC(=O)[C@H](CC(=O)O)NC1=O)NC(=O)[C@H](CC(C)(C)C)NC(=O)[C@H](CC(=O)O)NC2=O (stereo partly drawn) [I-839, Ac-PL3-Asp-Npg-B5-Asp-Gln-Ala-Ala-Phe-Asn-PyrS2-3Thi-BztA-His-NH2]	41900	–	–	IC50 ([2]; read-out: beta-Catenin FP IC50): 7 nM; chromatographic logD (CHI Log D procedure; pH 7.4, CHI Log D): 2.27; Solubility (Solubility in PBS; Solubility (uM)): 13 µM (≈ 25.2 µg/mL)
CC(=O)N1CCC[C@]12CC=CCCCC1(CCCC=CCCCCCC[C@@](C)(C(=O)N[C@@H](Cc3ccsc3)C(=O)N[C@@H](Cc3csc4ccccc34)C(=O)N[C@@H](CCC(N)=O)C(N)=O)NC(=O)[C@H](CC(N)=O)NC(=O)[C@H](Cc3ccccc3)NC(=O)[C@H](C)NC(=O)[C@H](C)NC(=O)[C@H](CC(=O)O)NC(=O)[C@H](CC(=O)O)NC1=O)NC(=O)[C@H](CC(C)(C)C)NC(=O)[C@H](CC(=O)O)NC2=O (stereo partly drawn) [I-678, Ac-PL3-Asp-Npg-B5-Asp-Asp-Ala-Ala-Phe-Asn-S8-3Thi-BztA-Gln-NH2]	16800	26	–	IC50 ([2]; read-out: FP EC50): 26 nM; CHI Log D (CHI Log D procedure): 2.329; Solubility (Solubility in PBS): 49 µM (≈ 91.9 µg/mL)
CC(=O)N1CCC[C@]12CC=CCCCC1(CCCC=CCCCOC(=O)N3CC[C@@](C(=O)N[C@@H](Cc4ccccc4)C(=O)N[C@@H](Cc4csc5ccccc45)C(=O)N[C@@H](Cc4c[nH]cn4)C(N)=O)(C3)NC(=O)[C@H](CC(N)=O)NC(=O)[C@H](Cc3ccccc3)NC(=O)[C@H](C)NC(=O)[C@H](C)NC(=O)[C@H](CCC(=O)O)NC(=O)[C@H](CC(=O)O)NC1=O)NC(=O)[C@H](CC(C)(C)C)NC(=O)[C@H](CC(=O)O)NC2=O (stereo partly drawn) [I-693, Ac-PL3-Asp-Npg-B5-Asp-Glu-Ala-Ala-Phe-Asn-PyrS2-Phe-BztA-His-NH2]	28500	12	–	IC50 ([2]; read-out: FP EC50): 12 nM; CHI Log D (CHI Log D procedure): 2.184; Solubility (Solubility in PBS): 34 µM (≈ 65.8 µg/mL)
